Results as given in patent US12064577B2, “Drug-coated balloon” (Intersect ENT, Inc., priority 2015, dated 2024).
Where two headings read alike, the source gives them in different places.

Tests used:
[1] = Plasma concentration of mometasone furoate after drug coated balloon delivery to ovine maxillary sinus; format: in vivo; details: other: drug coated balloon expanded in the maxillary sinus, sheep, read-out: MF Plasma Concentration
Description: (§1) A 30 mm 80A Pellethane® compliant balloon was cleaned with 70% isopropanol and dried in an oven. The balloon was then treated with oxygen plasma and immediately spray coated with a mometasone furoate formulation listed in Table 1. Post-spray pass drying was conducted with nitrogen gas. Next, the drug coated balloon was treated by solvent vapor annealing (i.e., exposed to a solvent vapor) in a sealed chamber saturated with ethanol for four hours at room temperature. After solvent vapor annealing, the balloon was re-folded and heat set using a custom pleating machine. The coated balloon was then sheathed and packaged under nitrogen gas and sterilized by electron beam irradiation.
(§2) A drug coated balloon made using the process described in Example 3 was advanced to a sheep maxillary sinus using a rigid 4 mm endoscope and expanded for 5 minutes, and then deflated and removed from the nostril. After 7 days the animal was sacrificed and tissue samples obtained from the maxillary sinus and surrounding tissues. […] Plasma concentration of mometasone furoate was also measured over 7 days. Referring to Table 3 below and FIG. 3, mometasone furoate (MF) plasma concentration was low and found to decrease over the 7 day period from an initially low value. […] Low systemic exposure generally lowers the risk of a patient experiencing side effects from the delivered drug.

[2] = Drug uptake into sinus tissue after drug coated balloon delivery, ovine model (HPLC of tissue samples); format: in vivo; details: other: drug coated balloon expanded in the maxillary sinus, sheep, Example 3 balloon (solvent vapor annealed coating) expanded 5 minutes in maxillary sinus, tissue sampled after 7 days
Description: as §1, §2

concentration at 0 day ([1]; day 0 after Example 3 balloon delivery to maxillary sinus): 0.3 ng/mL | concentration at 1 day ([1]; day 1 after Example 3 balloon delivery to maxillary sinus): 0.3 ng/mL | concentration at 4 day ([1]; day 4 after Example 3 balloon delivery to maxillary sinus): 0.05 ng/mL | concentration at 7 day ([1]; day 7 after Example 3 balloon delivery to maxillary sinus): < 0.01 ng/mL | concentration at 7 days ([2]; read-out: mometasone furoate concentration in maxillary sinus tissue): 146 ng/g | concentration at 7 days ([2]; tissues surrounding the maxillary sinus, read-out: mometasone furoate concentration in tissues surrounding the maxillary sinus): 55 ng/g
SMILES: C[C@@H]1C[C@H]2[C@@H]3CCC4=CC(=O)C=C[C@]4(C)[C@@]3(Cl)[C@@H](O)C[C@]2(C)[C@@]1(OC(=O)c1ccco1)C(=O)CCl [mometasone furoate]
